The term IC50 denotes the concentration that inhibits the measured activity by half. Broadly, the inhibition is how much of the control response was suppressed.

The source of these data is publication PMC6411751, “Use of machine learning to identify novel, behaviorally active antagonists of the insect odorant receptor co-receptor (Orco) subunit” (Scientific Reports, 2019).

The target in the first experiment is T1, Agam\Orco (Anopheles gambiae, UniProt Q7QCC7).
T1 construct: expressed in transfected cells; host or cells: Xenopus laevis oocytes injected with capped cRNA (plasmid pT7TS, gift of L. Zwiebel)
T1 sequence (Q7QCC7 1-478): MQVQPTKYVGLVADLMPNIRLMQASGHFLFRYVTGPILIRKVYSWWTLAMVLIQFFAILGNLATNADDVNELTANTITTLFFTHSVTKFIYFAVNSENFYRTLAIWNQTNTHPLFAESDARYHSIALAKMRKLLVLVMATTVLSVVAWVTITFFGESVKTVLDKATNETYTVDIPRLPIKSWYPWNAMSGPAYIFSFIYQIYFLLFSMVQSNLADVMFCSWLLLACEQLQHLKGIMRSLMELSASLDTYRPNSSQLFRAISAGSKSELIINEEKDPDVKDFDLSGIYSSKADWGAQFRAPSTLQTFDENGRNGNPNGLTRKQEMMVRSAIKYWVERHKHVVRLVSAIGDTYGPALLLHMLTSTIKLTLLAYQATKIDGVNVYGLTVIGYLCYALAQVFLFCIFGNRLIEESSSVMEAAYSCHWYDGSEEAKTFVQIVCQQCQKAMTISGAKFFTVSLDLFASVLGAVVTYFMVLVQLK
Put plainly: cell-based. The experiment is classed as cell-based.
Settings: not given
As to the method: A 2 hr incubation with collagenase B (Roche) was used to remove follicle cells from oocytes. Capped cRNA for Agam\Orco was synthesized using mMessage mMachine kits (Thermo Fisher Scientific). 25 ng of cRNA was injected into stage V–VI oocytes, followed by a 2–5 day incubation at 18 °C in Barth’s saline (in mM: 88 NaCl, 1 KCl, 2.4 NaHCO3, 0.3 CaNO3, 0.41 CaCl2, 0.82 MgSO4, 15 HEPES, pH 7.4, and 0.05 g/L tetracycline, 0.05 g/L ciprofloxacin, 0.1 g/L amikacin) prior to electrophysiological recordings.
An automated parallel electrophysiology system (OpusExpress 6000 A, Molecular Devices) was used to record Orco agonist (OLC12) or odorant induced currents under two-electrode voltage clamp. Oocytes were perfused with ND96 (in mM: 96 NaCl, 2 KCl, 1 CaCl2, 1 MgCl2, 5 HEPES, pH 7.4). DMSO was used to prepare 1 M or 100 mM stock solutions of test compounds, which were then diluted in ND96 on the day of the experiment. Compounds were applied at a flow rate of 1.0 mL/min, with extensive washing in ND96 at 4.6 mL/min between applications. Micropipettes with resistances of 0.2–2.0 MΩ were filled with 3 M KCl. The holding potential was −70 mV. Current responses were filtered (4-pole, Bessel, low pass) at 20 Hz (−3 db) and sampled at 100 Hz. OpusXpress 1.1 software (Molecular Devices) was used to capture and store current responses.
To measure antagonist activity at Orco, Agam\Orco was activated by the Orco agonist OLC12[34]. […] The current response to OLC12 in the presence of antagonist candidate was compared to the mean of the preceding two responses to OLC12 alone and presented as a percentage[34],[35]. This value was then normalized to the value obtained when the assay was run in the absence of antagonist candidate (sham).
During development of the training panel (Fig. 2, Tables S1 and S2), all compounds not previously known to be Orco antagonists were tested at a concentration of 3 mM. […] Concentration-inhibition curves were constructed for all compounds eliciting >20 percent inhibition at 3 mM. The same concentration and criteria were used during screening of predicted actives (Fig. 4D) and predicted inactives (Fig. 5C).
Clampfit 9.1 software (Molecular Devices) was used to perform initial analysis of electrophysiological data. Prism 7 (Graphpad) was used for curve fitting. Concentration-inhibition data were fit to the equation: I = Imax/(1 + (X/IC50)^n) where I represents the current response at a given concentration of inhibitor, X; Imax is the maximal response in the absence of inhibitor; IC50 is the concentration of inhibitor present that allows a half maximal response from OLC12; n is the apparent Hill coefficient.
`c1ccc(CNc2ccccc2)cc1` [n-benzylaniline]: the IC50 stood at 114 ± 12 µM.

`Cc1ccc(O)c(C(C)(C)C)c1` [2-tert-butyl-4-methylphenol]: the “more potent than BMP” value was 2 fold.

In the case of `CC(C)c1cccc(C(C)C)c1O` [propofol, 2,6-diisopropylphenol, reference compound], the IC50 was found to be 47 ± 3 µM and the Orco antagonist activity result is on record as “has Orco antagonist activity”.

Turning to `CCc1cccc(CC)c1O` [2,6-diethylphenol], the IC50 is 86 ± 17 µM.

`CC(C)(C)c1ccccc1O` [2-tert-butylphenol] showed an IC50 of 32 ± 5 µM.

For `CC(C)c1cccc(C(C)(C)C)c1O` [2-tert-butyl-6-isopropylphenol], the IC50 worked out at 50 ± 7 µM.

For the compound `CCCCO` [1-butanol], the “inhibition of Agam\Orco (OLC12 response) at 3 mM” value (from here on “inhibition of Agam\Orco”) is no more than 20%.

As for `CC(C)(C)c1ccc(O)c(C(C)(C)C)c1` [2,4-di-tert-butylphenol], the IC50 came out at 15 ± 1 µM and the “more potent than BMP” value is recorded as 3 fold.

Still in this experiment, the particulars now being: 1 mM compound, 30 µM OLC12.
As to `CCN(CC)C(=O)c1cccc(C)c1` [DEET, N,N-diethyl-m-toluamide, reference compound], the “inhibition of OLC12 activation” value was “little or no inhibition”.

The same experiment, now with this note: 3 mM compound, 30 µM OLC12.
As for `CN(C)C` [trimethylamine], the “inhibition of Agam\Orco” value is no more than 20%.

As for `c1cscn1` [thiazole], the “inhibition of Agam\Orco” value is recorded as no more than 20%.

Still in this experiment, the particulars now being: Agam\Orco IC50 compared with 3I6MC.
Take `Cc1ccc(C(C)C)c(O)c1` [thymol]: the “change in potency relative to 3I6MC” value is reported as “slightly decreased potency”.

The same experiment, now with this note: Agam\Orco IC50 compared with BMP.
Turning to `CCc1cccc(CC)c1O` [2,6-diethylphenol], the “change in potency relative to BMP” value is “slightly decreased potency”.

As to `CC(C)(C)c1ccccc1O` [2-tert-butylphenol], the “change in potency relative to BMP” value is on record as “slight increase in potency”.

Consider `CC(C)c1cccc(C(C)(C)C)c1O` [2-tert-butyl-6-isopropylphenol], for which the “change in potency relative to BMP” value is on record as “no effect on potency”.

In the case of `Cc1cc(C)c(O)c(C)c1` [2,4,6-trimethylphenol], the “loss of potency relative to BMP” value stood at 4.5 fold.

Consider `CC(C)(C)c1cccc(C(C)(C)C)c1O` [2,6-di-tert-butylphenol], for which the “change in potency relative to BMP” value is “slightly decreased potency”.

Staying with this experiment, now noted: Table 2; inhibition of Agam\Orco activated by 30 µM OLC12; mean ± SEM (n = 3–9); read-out: IC50.
For `Cc1ccc(O)c(C(C)(C)C)c1` [2-tert-butyl-4-methylphenol], the IC50 was 25 ± 3 µM.

Regarding `Cc1cc(C)c(O)c(C)c1` [2,4,6-trimethylphenol], the IC50 worked out at 212 ± 29 µM.

Consider `CC(C)(C)c1cccc(C(C)(C)C)c1O` [2,6-di-tert-butylphenol], for which the IC50 worked out at 92 ± 9 µM.

In the case of `CC(C)c1ccc(O)c(C(C)C)c1` [C00014, 2,4-diisopropylphenol], the IC50 was found to be 37 ± 7 µM.

Still in this experiment, the particulars now being: Table S1; training actives; Agam\Orco activated by 30 µM OLC12; mean ± SEM (n = 3-8); read-out: IC50.
Turning to `COc1ccccc1O` [guaiacol], the IC50 is 4030 ± 654 µM.

For `CCCCCCOC(C)=O` [hexyl acetate], the IC50 worked out at 841 ± 121 µM.

Turning to `CC1CCC(C(C)C)C(O)C1` (single isomer, unassigned; (-)) [(-)menthol], the IC50 stood at 433 ± 78 µM.

For the compound `C#CC(O)CCCCC` (centres unmarked) [1-octyn-3-ol], the IC50 was 870 ± 60 µM.

`CCCCc1ccc(NC(=O)CSc2nnc(-c3ccccn3)n2CC)cc1` [OLC15, N-(4-butylphenyl)-2-((4-Et-5-(2-pyridinyl)-4H-1,2,4-triazol-3-yl)thio)acetamide, reference compound]: the IC50 is 10 ± 2 µM.

In the case of `Cc1cc(C)c(NC(=O)c2cccs2)c(C)c1` [OX1L, N-mesityl-2-thiophenecarboxamide, reference compound], the IC50 turned out to be 58 ± 10 µM.

As to `COC(C)=O` [methyl acetate], the IC50 amounted to 1640 ± 179 µM.

With `Cc1ccc(CNC(=O)c2cccs2)cc1` [OX3a, N-(4-methylbenzyl)-2-thiophenecarboxamide, reference compound], the IC50 was determined as 202 ± 15 µM.

On to `COc1ccc(OC)cc1` [1,4-dimethoxybenzene], for which the IC50 amounted to 1100 ± 172 µM.

`O=Cc1ccc2c(c1)OCO2` [piperonal]: the IC50 came to 2570 ± 244 µM.

On to `CCN(CC)C(=O)c1cccc(C)c1` [DEET, N,N-diethyl-m-toluamide, reference compound], for which the IC50 is 4480 ± 369 µM.

Turning to `COc1nccnc1CC(C)C` [2-isobutyl-3-methoxypyrazine], the IC50 stood at 1020 ± 83 µM.

For `COc1ccccc1OC` [veratrole], the IC50 stood at 5420 ± 845 µM.

Turning to `CC1(C)C(=O)[C@@]2(C)CC[C@H]1C2` [L-fenchone], the IC50 worked out at 1330 ± 105 µM.

Consider `CC1CC[C@H](C(C)C)[C@@H](O)C1` (single isomer, unassigned; (+)) [(+)menthol], for which the half-maximal inhibitory concentration (IC50) was 443 ± 72 µM.

For `C=CCc1ccc(OC)c(OC)c1` [methyl eugenol], the IC50 came out at 525 ± 40 µM.

With `SCCCCCCCCCS` [1,9-nonanedithiol], the IC50 turned out to be 1600 ± 299 µM.

On to `Cc1cccc(O)c1` [m-cresol], for which the IC50 was found to be 1280 ± 238 µM.

In the case of `Cc1ccc(C(C)C)c(O)c1` [thymol], the half-inhibitory concentration (IC50) stood at 61 ± 10 µM.

In the case of `CCCC=O` [butyraldehyde], the IC50 came to 3000 ± 333 µM.

Take (−)-terpinen-4-ol: the IC50 turned out to be 678 ± 78 µM.

As for `C=C(C)C1CCC(C)C(O)C1` (single isomer, unassigned; (-)) [(-)-dihydrocarveol], the IC50 turned out to be 818 ± 81 µM.

Regarding `COc1ccccc1` [anisole], the IC50 is 1170 ± 243 µM.

For `CCCCC1Cc2ccccc2C1=O` (centres unmarked) [2-butyl-1-indanone], the IC50 amounted to 289 ± 28 µM.

On to `C=C(C)C1CC=C(C)[C@@H](O)C1` (single isomer, unassigned; (-)) [(-)-carveol], for which the half-inhibitory concentration (IC50) turned out to be 1030 ± 117 µM.

In the case of `O=C1CCCCCCCCCC1` [cycloundecanone], the IC50 turned out to be 366 ± 28 µM.

In the case of `Cc1ccccc1` [toluene], the IC50 came to 1600 ± 243 µM.

As to `CC1(O)CSC(C)(O)CS1` (centres unmarked) [2,5-dimethyl-2,5-dihydroxy-1,4-dithiane], the IC50 stood at 4860 ± 1270 µM.

On to `CC1=NC(C)SC1C` (centres unmarked) [2,5-dihydro-2,4,5-trimethylthiazoline], for which the IC50 is 13000 ± 2400 µM.

`CC(C)OC(=O)C=Cc1ccccc1` [isopropyl cinnamate]: the IC50 was 153 ± 14 µM.

Consider `C=C(C)[C@H]1CC=C(C)C(=O)C1` [(S)-carvone], for which the IC50 stood at 1280 ± 92 µM.

On to `O=C(/C=C/c1ccccc1)OCc1ccccc1` [benzyl cinnamate], for which the IC50 was determined as 492 ± 64 µM.

As to `CCCCCSC` [amyl methyl sulfide], the IC50 is 915 ± 77 µM.

For the compound `CC(C=O)=Cc1ccccc1` [α-methyl cinnamaldehyde], the IC50 stood at 187 ± 40 µM.

Turning to `CCOC(=O)C=Cc1c(Cl)cccc1Cl` [ethyl 2,6-dichlorocinamate], the IC50 is 93 ± 11 µM.

In the case of `CCOC(=O)c1ccccc1` [ethyl benzoate], the IC50 amounted to 569 ± 44 µM.

As for (+)-isopulegol, the IC50 came out at 1370 ± 285 µM.

On to `O=CCCc1ccccc1` [hydrocinnamaldehyde], for which the IC50 was 220 ± 24 µM.

As for `CCCCCCC1CCC(=O)O1` (centres unmarked) [γ-decalactone], the IC50 is 948 ± 153 µM.

The experiment is the same for the next values; noted with them: read-out: inhibition of Agam\Orco (OLC12 response) at 3 mM; 3 mM compound, 30 µM OLC12.
With `Oc1ccccc1O` [catechol], the inhibition at 3000 µM is no more than 20%.

On to `c1cnccn1` [pyrazine], for which the inhibition at 3000 µM is no more than 20%.

As for `CCC(=O)C(C)=O` [2,3-pentanedione], the inhibition at 3000 µM is no more than 20%.

As for `N[C@@H](Cc1ccccc1)C(=O)O` [phenylalanine], the inhibition at 3000 µM is no more than 20%.

With `OC[C@H]1OC(O)[C@H](O)[C@@H](O)[C@@H]1O` (some centres unmarked) [glucose], the inhibition at 3000 µM is no more than 20%.

On to `Cc1ccnc2ccccc12` [4-methylquinoline], for which the inhibition at 3000 µM is no more than 20%.

As for `O=C(O)CCCCBr` [5-bromovaleric acid], the inhibition at 3000 µM is no more than 20%.

In the case of `CCCCC/C=C\C/C=C\CCCCCCCC(=O)O` [linoleic acid], the inhibition at 3000 µM was no more than 20%.

Consider `O=C(O)CCCCCBr` [6-bromohexanoic acid], for which the inhibition at 3000 µM was no more than 20%.

Turning to `CCOC(=O)CC` [ethyl propionate], the inhibition at 3000 µM is no more than 20%.

As for `O=C1CCCC1` [cyclopentanone], the inhibition at 3000 µM is no more than 20%.

Turning to `CC1=CC(=O)CC(C)(C)C1` [isophorone], the inhibition at 3000 µM is no more than 20%.
